# What was measured:
# [1] = Growth inhibition of human RCC4 cells after 4 days by XTT assay; assay type: functional, cell-based; settings: RCC4, 96 h
# [2] = Growth inhibition of human RCC4/VHL cells after 4 days by XTT assay; assay type: functional, cell-based; settings: 96 h
# [3] = Selectivity ratio IC50 for human RCC4/VHL cells to IC50 for human RCC4 cells; assay type: functional
Compound,IC50 ([1]; read-out: pIC50 (converted)),IC50 ([1]; read-out: IC50),IC50 [2],Ratio IC50 [3]
Clc1ccc(Nc2nc(-c3ccncc3)cs2)cc1,38 µM,–,–,–
Cc1cccc(Nc2nc(-c3ccncc3Cl)cs2)c1,2.95 µM,–,–,–
Cc1cccc(Nc2nc(-c3ccncc3-c3ccc(C(N)=O)cc3)cs2)c1,4.17 µM,4.1 µM,1.6 µM,–
Cc1cc(C)cc(Nc2nc(-c3ccncc3)cs2)c1,4.57 µM,–,–,–
C#Cc1cc(-c2csc(Nc3cccc(C)c3)n2)ccn1,18.2 µM,–,–,–
Cc1cccc(Nc2nc(-c3c(C)nc4ccccn34)cs2)c1,9.55 µM,9.5 µM,29.8 µM,3.1
Cc1cccc(Nc2nc(-c3ccncc3C)cs2)c1,5.25 µM,–,–,–
Cc1cccc(Nc2nc(-c3ccncc3)n[nH]2)c1,28.8 µM,28.7 µM,22.2 µM,0.8
Cc1cccc(Nc2nc(-c3ccncc3-c3ccc(C(=O)NCCCN(C)C)cc3)cs2)c1,4.07 µM,4 µM,3.9 µM,1
Cc1ccc(Nc2nc(-c3ccncc3)cs2)cc1,2.51 µM,–,–,–
Fc1cccc(Nc2nc(-c3ccncc3)cs2)c1,40.7 µM,–,–,–
Fc1ccccc1Nc1nc(-c2ccncc2)cs1,14.5 µM,–,–,–
Cc1cccc(Nc2nnc(-c3ccncc3)n2C)c1,40.7 µM,> 40 µM,> 40 µM,–
Cc1cccc(Nc2nc(-c3ccnc(Br)c3)cs2)c1,2.04 µM,–,–,–
COc1ccc(Nc2nc(-c3ccncc3)cs2)cc1OC,24.5 µM,–,–,–
Cc1cccc(Nc2nc(-c3ccnc(-c4cn(Cc5ccccc5)nn4)c3)cs2)c1,2.14 µM,2.1 µM,14 µM,6.7
Cc1cccc(Nc2nc(-c3ccncc3)c(CN(C)C)s2)c1,16.2 µM,–,–,–
Cc1cccc(Nc2nc(-c3ccncc3)c(CN3CCOCC3)s2)c1,2.51 µM,–,–,–
Cc1cccc(Nc2nc(-c3cc(-c4ccccc4)nc4ccccc34)cs2)c1,25.7 µM,25.4 µM,> 40 µM,>1.6
Cc1cccc(Nc2nc(-c3ccncc3C#CCCO)cs2)c1,1.1 µM,1.1 µM,2.8 µM,2.5
Cc1cccc(Nc2nc(-c3ccncc3C#CCCCO)cs2)c1,6.3 µM,6.3 µM,0.3 µM,–
Clc1cccc(Nc2nc(-c3ccncc3)cs2)c1,3.02 µM,–,–,–
Cc1ccc(Nc2nc(-c3ccncc3)cs2)cc1C,6.61 µM,–,–,–
Cc1cccc(Nc2nc(-c3ccncc3-c3ccc(S(=O)(=O)NC(C)(C)C)cc3)cs2)c1,4.57 µM,4.5 µM,22.5 µM,5

Compound,IC50 ([1]; read-out: pIC50 (converted)),IC50 ([1]; read-out: IC50),IC50 [2],Ratio IC50 [3]
COc1ccc(Nc2nc(-c3ccncc3)cs2)cc1,14.1 µM,–,–,–
CC(C)c1cccc(Nc2nc(-c3ccncc3)cs2)c1,17.4 µM,–,–,–
Clc1ccccc1Nc1nc(-c2ccncc2)cs1,28.2 µM,–,–,–
Cc1cccc(Nc2nc(-c3ccncc3)co2)c1,40.7 µM,> 40 µM,> 40 µM,–
Cc1cccc(Nc2nc(-c3ccncc3NCCN3CCOCC3)cs2)c1,19.5 µM,19.5 µM,27.9 µM,1.4
Cc1cccc(Nc2nc(-c3ccncc3)c[nH]2)c1,40.7 µM,> 40 µM,> 40 µM,–
Cc1cccc(Nc2nc(-c3ccncc3-c3ccccc3)cs2)c1,11.7 µM,11.6 µM,33.2 µM,2.9
COc1ccccc1Nc1nc(-c2ccncc2)cs1,33.9 µM,–,–,–
FC(F)(F)c1ccc(Nc2nc(-c3ccncc3)cs2)cc1,40.7 µM,–,–,–
C#Cc1cnccc1-c1csc(Nc2cccc(C)c2)n1,1.38 µM,–,–,–
Cc1cccc(Nc2nc(-c3ccncc3-c3ccc(C(C)C)cc3)cs2)c1,40.7 µM,> 40 µM,> 40 µM,–
CN(C)CCc1ccc(Nc2nc(-c3ccncc3)cs2)cc1,50.1 µM,–,–,–
Cc1cccc(Nc2cncc(-c3ccncc3)n2)c1,8.51 µM,8.5 µM,31.8 µM,3.7
Cc1cccc(Nc2nc(-c3ccncc3-c3cn(Cc4ccccc4)nn3)cs2)c1,40.7 µM,> 40 µM,> 40 µM,–
Clc1ccc(Nc2nc(-c3ccncc3)cs2)cc1Cl,13.8 µM,–,–,–
Cc1cccc(Nc2nc(-c3ccnc4ccccc34)cs2)c1,12.3 µM,12.3 µM,20 µM,1.6
c1cc(-c2csc(Nc3ccc4c(c3)CCC4)n2)ccn1,2.04 µM,–,–,–
Cc1cccc(Nc2nc(-c3ccncc3)ns2)c1,25.1 µM,24.8 µM,> 40 µM,>1.6
Cc1cccc(Nc2nc(-c3ccnc(NCCN4CCOCC4)c3)cs2)c1,3.72 µM,3.7 µM,8 µM,2.2
Cc1cccc(Nc2nc(-c3ccnc(N4CCN(C)CC4)c3)cs2)c1,11.7 µM,11.5 µM,31.6 µM,2.8
Cc1cccc(Nc2nc(-c3ccnc(-c4ccsc4)c3)cs2)c1,8.71 µM,8.7 µM,> 40 µM,>4.6
c1ccc(Nc2nc(-c3ccncc3)cs2)cc1,7.08 µM,7 µM,> 70 µM,>10
Cc1cccc(Nc2nc(-c3ccnc(-c4cccc5[nH]ccc45)c3)cs2)c1,3.16 µM,3.1 µM,4.5 µM,1.5
Cc1cccc(Nc2nc(-c3ccncc3-c3ccc(C(F)(F)F)cc3)cs2)c1,12.9 µM,12.8 µM,22.6 µM,1.8

Compound,IC50 ([1]; read-out: pIC50 (converted)),IC50 ([1]; read-out: IC50),IC50 [2],Ratio IC50 [3]
Cc1cccc(N(C)c2nc(-c3ccncc3)cs2)c1,28.2 µM,–,–,–
FC(F)(F)c1ccccc1Nc1nc(-c2ccncc2)cs1,40.7 µM,–,–,–
Cc1cccc(Nc2nc(-c3ccncc3)c(CN3CCCCC3)s2)c1,13.2 µM,–,–,–
Cc1cccc(Nc2nc(-c3ccncc3)c(CCCO)s2)c1,3.63 µM,–,–,–
Cc1cccc(Nc2nc(-c3ccnc(-c4ccccc4)c3)cs2)c1,19.5 µM,19.1 µM,40 µM,2.1
Brc1cccc(Nc2nc(-c3ccncc3)cs2)c1,40.7 µM,–,–,–
CCc1cnccc1-c1csc(Nc2cccc(C)c2)n1,6.31 µM,–,–,–
Cc1cccc(Nc2nc(-c3cnn4ccccc34)cs2)c1,40.7 µM,> 40 µM,15.3 µM,<0.4
Cc1cccc(Nc2nc(-c3ccncc3-c3ccncc3)cs2)c1,13.8 µM,13.8 µM,34 µM,2.5
Cc1cccc(Nc2nc(-c3ccnc(-c4cccc(F)n4)c3)cs2)c1,> 40 µM,> 40 µM,> 40 µM,–
COC(=O)C=CC(=O)c1sc(Nc2cccc(C)c2)nc1-c1ccncc1,2.51 µM,–,–,–
Cc1cccc(Nc2nc(-c3ccncc3)c(CCCN3CCOCC3)s2)c1,5.89 µM,–,–,–
Cc1cccc(Nc2nc(-c3ccnc(C)c3)cs2)c1,28.8 µM,–,–,–
Cc1cccc(Nc2nc(-c3ccnc(CCCO)c3)cs2)c1,5.25 µM,–,–,–
CC(C)(C)c1cccc(Nc2nc(-c3ccncc3)cs2)c1,60.3 µM,–,–,–
Cc1cccc(Nc2nc(-c3ccnc(OCCCN(C)C)c3)cs2)c1,6.03 µM,6 µM,8.8 µM,1.5
CCc1cc(-c2csc(Nc3cccc(C)c3)n2)ccn1,6.46 µM,–,–,–
COc1cccc(Nc2nc(-c3ccncc3)cs2)c1,3.02 µM,–,–,–
O=[N+]([O-])c1ccccc1Nc1nc(-c2ccncc2)cs1,40.7 µM,–,–,–
Cc1cccc(Nc2nc(-c3ccnc(-c4cncnc4)c3)cs2)c1,26.9 µM,26.4 µM,37 µM,1.4
Cc1cc(Nc2nc(-c3ccncc3)cs2)ccc1O,70.8 µM,–,–,–
Cc1cccc(Nc2cccc(-c3ccncc3)c2)c1,37.2 µM,36.9 µM,38.1 µM,1
Cc1cccc(Nc2nc(-c3ccnc(OCCN4CCOCC4)c3)cs2)c1,7.08 µM,7 µM,21.1 µM,3
Cc1cccc(Nc2nc(-c3ccncc3CCCO)cs2)c1,6.92 µM,–,–,–

Compound,IC50 ([1]; read-out: pIC50 (converted)),IC50 ([1]; read-out: IC50),IC50 [2],Ratio IC50 [3]
Cc1cccc(Nc2nc(-c3ccnc(-c4ccncc4)c3)cs2)c1,29.5 µM,28.9 µM,38 µM,1.3
Cc1cccc(Nc2nc(-c3ccncc3)c(C)s2)c1,10 µM,–,–,–
Cc1cccc(Nc2nc(-c3cc(Cl)nc(Cl)c3)cs2)c1,15.1 µM,–,–,–
Cc1cccc(Nc2nc(-c3ccncc3-c3ccc(S(C)(=O)=O)cc3)cs2)c1,1.62 µM,1.6 µM,13.4 µM,8.4
Cc1cccc(Nc2cccc(-c3ccncc3)n2)c1,7.41 µM,7.4 µM,> 40 µM,>5.4
Oc1cccc(Nc2nc(-c3ccncc3)cs2)c1,28.8 µM,–,–,–
Cc1cccc(Nc2nc(-c3ccncc3)c(C(=O)N(C)C)s2)c1,16.2 µM,–,–,–
Oc1ccc(Nc2nc(-c3ccncc3)cs2)cc1,5.37 µM,–,–,–
Cc1sc(Nc2ccc3c(c2)CCC3)nc1-c1ccncc1,12 µM,–,–,–
CCN(c1cccc(C)c1)c1nc(-c2ccncc2)cs1,40.7 µM,–,–,–
Oc1ccccc1Nc1nc(-c2ccncc2)cs1,12.9 µM,–,–,–
Cc1cccc(Nc2nc(-c3ccnc(F)c3)cs2)c1,4.57 µM,–,–,–
OCc1sc(Nc2ccccc2)nc1-c1ccncc1,30.2 µM,–,–,–
Cc1cccc(Nc2nnc(-c3ccncc3)o2)c1,40.7 µM,> 40 µM,> 40 µM,–
CCc1cccc(Nc2nc(-c3ccncc3)cs2)c1,2.51 µM,–,–,–
Cc1cccc(Nc2nc(-c3ccncc3Br)cs2)c1,3.98 µM,–,–,–
CN(C)CCOc1ccc(Nc2nc(-c3ccncc3)cs2)cc1,60.3 µM,–,–,–
Cc1cccc(Nc2nc(-c3ccnc(Cl)c3)cs2)c1,2.24 µM,–,–,–
OCCc1ccc(Nc2nc(-c3ccncc3)cs2)cc1,5.01 µM,–,–,–
Fc1ccc(Nc2nc(-c3ccncc3)cs2)cc1,6.03 µM,–,–,–
Cc1ccc(Nc2nc(-c3ccncc3)cs2)cc1O,12 µM,–,–,–
Cc1cccc(Nc2nc(-c3ccncc3)c(C(N)=O)s2)c1,19.5 µM,–,–,–

# From ChEMBL document CHEMBL1817609, “SAR studies of 4-pyridyl heterocyclic anilines that selectively induce autophagic cell death in von Hippel-Lindau-deficient renal cell carcinoma cells” (Bioorg Med Chem, 2011)
